Common to all, as to format: nucleic-acid assay
The subject of test [1] is Nucleic Acid. The test is described as follows: Induction of Escherichia coli pUC19 DNA cleavage assessed as conversion of supercoiled plasmid DNA to nicked circular DNA at 20 uM after 48 hrs by agarose gel electrophoresis.
For test [2], the system named is Nucleic Acid. Briefly: Induction of Escherichia coli pUC19 DNA cleavage assessed as conversion of supercoiled plasmid DNA to nicked circular DNA at 10 uM after 48 hrs by agarose gel electrophoresis.
Test [3] has as its system Nucleic Acid. The test is described as follows: Binding affinity to calf thymus DNA assessed as change in melting temperature at compound/DNA ratio of 1:5. Particulars: Bos taurus.
Test [4] relates to Nucleic Acid. The test is described as follows: Binding affinity to calf thymus DNA at compound/DNA ratio 2:5. The note with it: Bos taurus.
Test [5] deals with Nucleic Acid. Briefly: Binding affinity to calf thymus DNA assessed as change in melting temperature at compound/DNA ratio of 2:5. Particulars: Bos taurus.
Test [6] has as its system Nucleic Acid. Briefly: Induction of Escherichia coli pUC19 DNA cleavage assessed as conversion of supercoiled plasmid DNA to nicked circular DNA at 10 uM after 48 hrs by agarose gel electrophoresis in presence of 1 mM EDTA.
In test [7] the test system is Nucleic Acid. The test is described as follows: Induction of Escherichia coli pUC19 DNA cleavage assessed as conversion of supercoiled plasmid DNA to linear DNA at 10 uM after 48 hrs by agarose gel electrophoresis.
Test [8] concerns Nucleic Acid. Briefly: Induction of supercoiled Escherichia coli pUC19 DNA cleavage in HEPES buffer at pH 7.0 after 48 hrs by agarose gel electrophoresis in presence of 0.1 M DSMO.
Test [9] relates to Nucleic Acid. The test is described as follows: Induction of supercoiled Escherichia coli pUC19 DNA cleavage in HEPES buffer at pH 7.0 after 48 hrs by agarose gel electrophoresis in presence of 0.1 M NaN3.
The subject of test [10] is Nucleic Acid. Briefly: Induction of supercoiled Escherichia coli pUC19 DNA cleavage in HEPES buffer at pH 7.0 after 48 hrs by agarose gel electrophoresis in presence of 0.1 M potassium iodide.
For test [11], the system named is Nucleic Acid. The test is described as follows: Induction of supercoiled Escherichia coli pUC19 DNA cleavage in HEPES buffer at pH 7.0 after 48 hrs by agarose gel electrophoresis in presence of 0.1 M tert-butyl alcohol.
The test system of test [12] is Nucleic Acid. The test is described as follows: Induction of [5'-32P]-end labeled single stranded 24 mer DNA cleavage assessed as formation of ladder of DNA fragment at 10 to 100 uM after 48 hrs at pH 7.0 and 37 degC by agarose gel electrophoresis-based phosphorimager analysis.
Test [13] deals with Nucleic Acid. The test is described as follows: Induction of [5'-32P]-end labeled single stranded 26 mer DNA cleavage assessed as formation of ladder of DNA fragments in HEPES buffer at 10 to 100 uM after 48 hrs at pH 7.0 and 37 degC by agarose gel electrophoresis-based phosphorimager analysis.
In test [14] the test system is Nucleic Acid. Briefly: Induction of [5'-32P]-end labeled single stranded 24 mer DNA cleavage assessed as formation of ladder of DNA fragment at 10 to 100 uM after 48 hrs at pH 7.0 and < = 25 degC by agarose gel electrophoresis-based phosphorimager analysis.
Test [15] concerns Nucleic Acid. The test is described as follows: Induction of [5'-32P]-end labeled single stranded 26 mer DNA cleavage assessed as formation of ladder of DNA fragment at 10 to 100 uM after 48 hrs at pH 7.0 and < = 25 degC by agarose gel electrophoresis-based phosphorimager analysis.

Activity calls are given as the source filed them. The rule behind the calls is not given here. *1 amine or outer side, *2 acyl side, *3 side chain or, on linkers, in order; H or OH if unused. Where a SMILES comes first, the peptide text is derived from it. Bridges are numbered along the chain shown (N, C = ends). Roman numbers before positions name the chains, in order. The star is where a group is joined. Hexamethylenediamine = C(CCCN[*:2])CCN[*:1]; Cyclenylacetyl = O=C(CN1CCNCCNCCNCC1)*; X1 = O=c1[nH]cc(C*)c(=O)[nH]1

Usually ΔTm stands for the change in melting temperature against a reference sample.

Consider `C1CNCCNCCNCCN1`, for which the result in test [1] was inactive.
In the case of `CC(C)(C)OC(=O)N1CCN(CC(=O)NCC(=O)N[C@@H](CSCc2c[nH]c(=O)[nH]c2=O)C(=O)NCC(=O)N[C@@H](CSCc2c[nH]c(=O)[nH]c2=O)C(=O)NCCCCCCNC(=O)[C@H](CSCc2c[nH]c(=O)[nH]c2=O)NC(=O)CNC(=O)[C@H](CSCc2c[nH]c(=O)[nH]c2=O)NC(=O)CNC(=O)CN2CCN(C(=O)OC(C)(C)C)CCN(C(=O)OC(C)(C)C)CCN(C(=O)OC(C)(C)C)CC2)CCN(C(=O)OC(C)(C)C)CCN(C(=O)OC(C)(C)C)CC1`, in [2], the outcome was Active.
Turning to `COC(=O)[C@H](CSCc1c[nH]c(=O)[nH]c1=O)NC(=O)CNC(=O)[C@H](CSCc1c[nH]c(=O)[nH]c1=O)NC(=O)CNC(=O)CN1CCNCCNCCNCC1` (Cyclenylacetyl-GC(X1)GC(X1)-OMe), the thermal shift (ΔTm) in test [3] amounted to 1.1 °C. For the same molecule, the result in test [4] and in [2] was Active. Besides, the result in test [1] was inactive.
As for `O=C(CN1CCNCCNCCNCC1)NCC(=O)N[C@@H](CSCc1c[nH]c(=O)[nH]c1=O)C(=O)NCC(=O)N[C@@H](CSCc1c[nH]c(=O)[nH]c1=O)C(=O)NCCCCCCNC(=O)[C@H](CSCc1c[nH]c(=O)[nH]c1=O)NC(=O)CNC(=O)[C@H](CSCc1c[nH]c(=O)[nH]c1=O)NC(=O)CNC(=O)CN1CCNCCNCCNCC1` (I: Cyclenylacetyl-GC(X1)GC(X1) / II: Cyclenylacetyl-GC(X1)GC(X1); linker I:C-II:C via Hexamethylenediamine), the ΔTm in [3] was 5.9 °C; in [5] it was 2.3 °C. For the same molecule, the result in [2], in test [6], in test [7], in test [10], in test [11] and in [12] was Active. Moreover, the outcome in test [13] was Active. In addition, the outcome in test [8], in test [9], in [14] and in [15] was inactive.

Values taken from ChEMBL document CHEMBL1833935, “Metal-free cleavage efficiency toward DNA by a novel PNA analog-bridged macrocyclic polyamine” (Bioorg Med Chem Lett, 2011).
